Values after ≈ are worked out from the molar mass of the structure shown. Active and inactive are the calls of the source. No cut-off for these calls is given here.
What was measured:
Type in all cases: functional
COLO 205 = assay: Growth inhibition of human COLO205 cells at 10^-5 M incubated for 48 hrs by sulforhodamine B assay relative to control
SK-OV-3 = assay: Growth inhibition of human SKOV3 cells at 10^-5 M incubated for 48 hrs by sulforhodamine B assay relative to control
SF-295 = assay: Growth inhibition of human SF295 cells at 10^-5 M incubated for 48 hrs by sulforhodamine B assay relative to control
SNB-19 = assay: Growth inhibition of human SNB19 cells at 10^-5 M incubated for 48 hrs by sulforhodamine B assay relative to control
SF-539 = assay: Growth inhibition of human SF539 cells at 10^-5 M incubated for 48 hrs by sulforhodamine B assay relative to control
786-0 = assay: Growth inhibition of human 786-0 cells at 10^-5 M incubated for 48 hrs by sulforhodamine B assay relative to control
HL-60(TB) = assay: Growth inhibition of human HL-60(TB) cells at 10^-5 M incubated for 48 hrs by sulforhodamine B assay relative to control
OVCAR-8 = assay: Growth inhibition of human OVCAR8 cells at 10^-5 M incubated for 48 hrs by sulforhodamine B assay relative to control
HCC 2998 = assay: Growth inhibition of human HCC2998 cells at 10^-5 M incubated for 48 hrs by sulforhodamine B assay relative to control
K562 = assay: Growth inhibition of human K562 cells at 10^-5 M incubated for 48 hrs by sulforhodamine B assay relative to control
SR = assay: Growth inhibition of human SR cells at 10^-5 M incubated for 48 hrs by sulforhodamine B assay relative to control
Aspergillus fumigatus [1] = assay: Antifungal activity against Aspergillus fumigatus after 24 hrs by serial dilution method
M14 = assay: Growth inhibition of human M14 cells at 10^-5 M incubated for 48 hrs by sulforhodamine B assay relative to control
MOLT-4 = assay: Growth inhibition of human MOLT4 cells at 10^-5 M incubated for 48 hrs by sulforhodamine B assay relative to control
HT-29 = assay: Growth inhibition of human HT-29 cells at 10^-5 M incubated for 48 hrs by sulforhodamine B assay relative to control
TK-10 = assay: Growth inhibition of human TK10 cells at 10^-5 M incubated for 48 hrs by sulforhodamine B assay relative to control
SK-MEL-5 = assay: Growth inhibition of human SK-MEL-5 cells at 10^-5 M incubated for 48 hrs by sulforhodamine B assay relative to control
OVCAR-5 = assay: Growth inhibition of human OVCAR5 cells at 10^-5 M incubated for 48 hrs by sulforhodamine B assay relative to control
T47D = assay: Growth inhibition of human T47D cells at 10^-5 M incubated for 48 hrs by sulforhodamine B assay relative to control
SF-268 = assay: Growth inhibition of human SF268 cells at 10^-5 M incubated for 48 hrs by sulforhodamine B assay relative to control
SN12C = assay: Growth inhibition of human SN12C cells at 10^-5 M incubated for 48 hrs by sulforhodamine B assay relative to control
NCI-H23 = assay: Growth inhibition of human NCI-H23 cells at 10^-5 M incubated for 48 hrs by sulforhodamine B assay relative to control
RXF 393 = assay: Growth inhibition of human RXF393 cells at 10^-5 M incubated for 48 hrs by sulforhodamine B assay relative to control
SK-MEL-28 = assay: Growth inhibition of human SK-MEL-28 cells at 10^-5 M incubated for 48 hrs by sulforhodamine B assay relative to control
Hs-578T = assay: Growth inhibition of human Hs 578T cells at 10^-5 M incubated for 48 hrs by sulforhodamine B assay relative to control
MCF7 = assay: Growth inhibition of human MCF7 cells at 10^-5 M incubated for 48 hrs by sulforhodamine B assay relative to control
BT-549 = assay: Growth inhibition of human BT549 cells at 10^-5 M incubated for 48 hrs by sulforhodamine B assay relative to control
SNB-75 = assay: Growth inhibition of human SNB75 cells at 10^-5 M incubated for 48 hrs by sulforhodamine B assay relative to control
KM12 = assay: Growth inhibition of human KM12 cells at 10^-5 M incubated for 48 hrs by sulforhodamine B assay relative to control
U-251 = assay: Growth inhibition of human U251 cells at 10^-5 M incubated for 48 hrs by sulforhodamine B assay relative to control
Aspergillus fumigatus [2] = assay: Antifungal activity against Aspergillus fumigatus at 100 ug/ml by disc diffusion method; conditions: read-out: IZ
Candida albicans = assay: Antifungal activity against Candida albicans after 24 hrs by serial dilution method
SW-620 = assay: Growth inhibition of human SW620 cells at 10^-5 M incubated for 48 hrs by sulforhodamine B assay relative to control
UACC-62 = assay: Growth inhibition of human UACC62 cells at 10^-5 M incubated for 48 hrs by sulforhodamine B assay relative to control
HCT-15 = assay: Growth inhibition of human HCT15 cells at 10^-5 M incubated for 48 hrs by sulforhodamine B assay relative to control
LOX IMVI = assay: Growth inhibition of human LOXIMVI cells at 10^-5 M incubated for 48 hrs by sulforhodamine B assay relative to control
MDA-MB-231 = assay: Growth inhibition of human MDA-MB-231/ATCC cells at 10^-5 M incubated for 48 hrs by sulforhodamine B assay relative to control
EKVX = assay: Growth inhibition of human EKVX cells at 10^-5 M incubated for 48 hrs by sulforhodamine B assay relative to control
NCI-H226 = assay: Growth inhibition of human NCI-H226 cells at 10^-5 M incubated for 48 hrs by sulforhodamine B assay relative to control
UO-31 = assay: Growth inhibition of human UO31 cells at 10^-5 M incubated for 48 hrs by sulforhodamine B assay relative to control
ACHN = assay: Growth inhibition of human ACHN cells at 10^-5 M incubated for 48 hrs by sulforhodamine B assay relative to control
OVCAR-3 = assay: Growth inhibition of human OVCAR3 cells at 10^-5 M incubated for 48 hrs by sulforhodamine B assay relative to control
UACC-257 = assay: Growth inhibition of human UACC257 cells at 10^-5 M incubated for 48 hrs by sulforhodamine B assay relative to control
A549 = assay: Growth inhibition of human A549/ATCC cells at 10^-5 M incubated for 48 hrs by sulforhodamine B assay relative to control
OVCAR-4 = assay: Growth inhibition of human OVCAR4 cells at 10^-5 M incubated for 48 hrs by sulforhodamine B assay relative to control

For `Clc1nc2ccccc2cc1Cn1nnnc1CSc1ccccc1`, the “growth inhibition (GI)” value (COLO 205) was “Active”, the “growth inhibition (GI)” value (SK-OV-3) was “Active” and the “growth inhibition (GI)” value (SF-295) was “Active”. For the same compound, the “growth inhibition (GI)” value (SNB-19) was “Active”, the “growth inhibition (GI)” value (SF-539) was “Active” and the “growth inhibition (GI)” value (786-0) was “Active”. The “growth inhibition (GI)” value (HL-60(TB)) was “Active”, the “growth inhibition (GI)” value (OVCAR-8) was “Active” and the “growth inhibition (GI)” value (HCC 2998) was “Active”. For the same compound, the “growth inhibition (GI)” value (K562) was “Active”, the “growth inhibition (GI)” value (SR) was “Active” and the MIC (Aspergillus fumigatus [1]) was 25 µg/mL (≈ 68 µM). The “growth inhibition (GI)” value (M14) was “Active”, the “growth inhibition (GI)” value (MOLT-4) was “Active” and the “growth inhibition (GI)” value (HT-29) was “Active”. The “growth inhibition (GI)” value (TK-10) was “Active”, the “growth inhibition (GI)” value (SK-MEL-5) was “Active” and the “growth inhibition (GI)” value (OVCAR-5) was “Active”. For the same compound, the “growth inhibition (GI)” value (T47D) was “Active”, the “growth inhibition (GI)” value (SF-268) was “Active” and the “growth inhibition (GI)” value (SN12C) was “Active”. The “growth inhibition (GI)” value (NCI-H23) was “Active”, the “growth inhibition (GI)” value (RXF 393) was “Active” and the “growth inhibition (GI)” value (SK-MEL-28) was “Active”. The “growth inhibition (GI)” value (Hs-578T) was “Active”, the “growth inhibition (GI)” value (MCF7) was “Active” and the “growth inhibition (GI)” value (BT-549) was “Active”. The “growth inhibition (GI)” value (SNB-75) was “Active”, the “growth inhibition (GI)” value (KM12) was “Active” and the “growth inhibition (GI)” value (U-251) was “Active”. For the same compound, the zone of inhibition at 100 µg/mL (Aspergillus fumigatus [2]) was 16 mm, the MIC (Candida albicans) was 10 µg/mL (≈ 27.2 µM) and the “growth inhibition (GI)” value (SW-620) was “Active”. The “growth inhibition (GI)” value (UACC-62) was “Active”, the “growth inhibition (GI)” value (HCT-15) was “Active” and the “growth inhibition (GI)” value (LOX IMVI) was “Active”. For the same compound, the “growth inhibition (GI)” value (MDA-MB-231) was “Active”, the “growth inhibition (GI)” value (EKVX) was “Active” and the “growth inhibition (GI)” value (NCI-H226) was “Active”. For the same compound, the “growth inhibition (GI)” value (UO-31) was “Active”, the “growth inhibition (GI)” value (ACHN) was “Active” and the “growth inhibition (GI)” value (OVCAR-3) was “Active”. The “growth inhibition (GI)” value (UACC-257) was “Active”, the “growth inhibition (GI)” value (A549) was “Active” and the “growth inhibition (GI)” value (OVCAR-4) was “Active”.
Compound `Clc1nc2ccccc2cc1Cn1nnc(Cc2ccccc2)n1` has an inhibition of growth at 10 µM (COLO 205; COLO 205, 48 h, read-out: GI) of 17.3%, an inhibition of growth at 10 µM (SK-OV-3; SK-OV-3, 48 h, read-out: GI) of 42.6% and an inhibition of growth at 10 µM (SF-295; SF-295, 48 h, read-out: GI) of 52.4%. It also gave an inhibition of growth at 10 µM (SNB-19; SNB-19, 48 h, read-out: GI) of 10.2%, an inhibition of growth at 10 µM (SF-539; SF-539, 48 h, read-out: GI) of 18.8% and an inhibition of growth at 10 µM (786-0; 786-0, 48 h, read-out: GI) of 27.1%. For the same compound, the inhibition of growth at 10 µM (HL-60(TB); HL-60, 48 h, read-out: GI) was 12.1%, the inhibition of growth at 10 µM (OVCAR-8; OVCAR-8, 48 h, read-out: GI) was 28.4% and the inhibition of growth at 10 µM (HCC 2998; HCC 2998, 48 h, read-out: GI) was 18.7%. The inhibition of growth at 10 µM (K562; K562, 48 h, read-out: GI) was 44.8%, the inhibition of growth at 10 µM (SR; read-out: GI) was 63% and the MIC (Aspergillus fumigatus [1]) was 50 µg/mL (≈ 149 µM). The inhibition of growth at 10 µM (M14; M14, 48 h, read-out: GI) was 26.4%, the inhibition of growth at 10 µM (MOLT-4; MOLT-4, 48 h, read-out: GI) was 56.9% and the inhibition of growth at 10 µM (HT-29; HT-29, 48 h, read-out: GI) was 28.4%. The inhibition of growth at 10 µM (TK-10; TK-10, 48 h, read-out: GI) was 39.1%, the inhibition of growth at 10 µM (SK-MEL-5; SK-MEL-5, 48 h, read-out: GI) was 99.3% and the inhibition of growth at 10 µM (OVCAR-5; OVCAR-5, 48 h, read-out: GI) was -4.25%. The inhibition of growth at 10 µM (T47D; read-out: GI) was 73.9%, the inhibition of growth at 10 µM (SF-268; SF-268, 48 h, read-out: GI) was 34.3% and the inhibition of growth at 10 µM (SN12C; read-out: GI) was 29.7%. For the same compound, the inhibition of growth at 10 µM (NCI-H23; NCI-H23, 48 h, read-out: GI) was 54.5%, the inhibition of growth at 10 µM (RXF 393; RXF 393, 48 h, read-out: GI) was 16.1% and the inhibition of growth at 10 µM (SK-MEL-28; SK-MEL-28, 48 h, read-out: GI) was 15.3%. For the same compound, the inhibition of growth at 10 µM (Hs-578T; read-out: GI) was 23.4%, the inhibition of growth at 10 µM (MCF7; MCF7, 48 h, read-out: GI) was 54.2% and the inhibition of growth at 10 µM (BT-549; BT-549, 48 h, read-out: GI) was 61.1%. It also gave an inhibition of growth at 10 µM (SNB-75; SNB-75, 48 h, read-out: GI) of 44.6%, an inhibition of growth at 10 µM (KM12; KM12, 48 h, read-out: GI) of 33.7% and an inhibition of growth at 10 µM (U-251; U-251, 48 h, read-out: GI) of 23.7%. For the same compound, the zone of inhibition at 100 µg/mL (Aspergillus fumigatus [2]) was 16 mm, the MIC (Candida albicans) was 25 µg/mL (≈ 74.4 µM) and the inhibition of growth at 10 µM (SW-620; SW-620, 48 h, read-out: GI) was 13.4%. The inhibition of growth at 10 µM (UACC-62; UACC-62, 48 h, read-out: GI) was 48.3%, the inhibition of growth at 10 µM (HCT-15; HCT-15, 48 h, read-out: GI) was 35% and the inhibition of growth at 10 µM (LOX IMVI; read-out: GI) was 46.4%. It also gave an inhibition of growth at 10 µM (MDA-MB-231; MDA-MB-231, 48 h, read-out: GI) of 47%, an inhibition of growth at 10 µM (EKVX; read-out: GI) of 63.9% and an inhibition of growth at 10 µM (NCI-H226; NCI-H226, 48 h, read-out: GI) of 41.8%. It also gave an inhibition of growth at 10 µM (UO-31; UO-31, 48 h, read-out: GI) of 181%, an inhibition of growth at 10 µM (ACHN; read-out: GI) of 47.8% and an inhibition of growth at 10 µM (OVCAR-3; OVCAR-3, 48 h, read-out: GI) of 40.5%. For the same compound, the inhibition of growth at 10 µM (UACC-257; UACC-257, 48 h, read-out: GI) was 46.4%, the inhibition of growth at 10 µM (A549; A549, 48 h, read-out: GI) was 46.1% and the inhibition of growth at 10 µM (OVCAR-4; OVCAR-4, 48 h, read-out: GI) was 70.3%.

From ChEMBL document CHEMBL4004849, “Tetrazolylmethyl quinolines: Design, docking studies, synthesis, anticancer and antifungal analyses” (2017)
